According to US20200155632A1, “COMPOSITION FOR TREATING AND PREVENTING MALE SEXUAL DISORDERS” (KOLINPHARMA S.P.A., priority 2017, published 2020):

What was measured:
[1] = system: cGMP in ECV-304 cells (human vascular endothelium cells); experiment: cGMP levels by ELISA in ECV-304 cells after treatment with Menix active ingredients and associations; assay type: cell-based; design: Average % deviation from control (cGMP levels): concentration or dose not given beside the values; conditions: for pM (cGMP), levels of expression of cGMP: 48 hours of treatment, average of n=3 biological replicates, concentrations of Table 3, control 82.1; for Average % deviation from control (cGMP levels): 48 hours, vs non-treated cells
Method: For this experiment, human vascular endothelium cells were selected (ECV-304). […] At this point, the cells were treated with trypsin and EDTA and were re-examined in appropriate culture flasks.
The cGMP levels were determined by ELISA assay, following the operating instructions given in the protocol supplied by the manufacturer (cGMP ELISA KIT—STA 505-5, Cloud Clone Corp), running the assay in the acetylated embodiment to increase the sensitivity thereof.
For the experiment, the ECV-304 cells were sowed in MW-6 and treated for 48 hours with the active ingredients of Menix and associations thereof. After the 48 hours had elapsed, the supernatants were collected and frozen at −80° C. until use. The untreated cells were used as a control.
The base levels of cGMP were determined by ELISA assay, following instructions supplied by the manufacturer (STA 505-5 Cell Biolabs Inc).
The results, expressed in terms of concentration (pM) of cGMP average±standard deviation (n=3 biological replicates), are set out in FIG. 3 and Table 4.

ICAM-1 and P-selectine = conditions: 2 g daily, adjuvant to sildenafil twice weekly; cited from earlier work
[2] = system: rats affected by type-1 diabetes; conditions: 400 mg/kg/daily; cited from earlier work
[3] = Solubility tests of the active ingredients of Menix; assay type: physicochemical; conditions: tested in order: culture medium, water, DMSO, organic solvents
Source text: Before being subjected to the cell assays, the active ingredients of Menix have been subjected to solubility tests to define the best solubilization agent for each of the assays.

aged rats = conditions: dissolved 1% in water; cited from earlier work
[4] = system: subjects suffering from erectile dysfunction (from mild to moderate); conditions: 600 mg/daily, 26 subjects; cited from earlier work
diabetic rat = conditions: cited from earlier work
[5] = system: rats with acute arteriogenic erectile dysfunction; conditions: 2% p/v in water for three weeks; cited from earlier work
[6] = oral administration; cited from earlier work
[7] = system: subjects suffering from mild erectile dysfunction; conditions: 1.5 g daily for a month, oral, 24 subjects; cited from earlier work

SMILES	pM (cGMP), levels of expression of cGMP [1] [pM]	Average % deviation from control (cGMP levels) [1] [%]	Solvent in which the active ingredient has been solubilized [3]	also measured
NCC(=O)[O-].NCC(=O)[O-].[Zn+2] [Zn, zinc bisglycinate]	90	9.62		
CCC(=O)O[C@H](CC(=O)[O-])C[N+](C)(C)C [propionyl-L-carnitine]				Endogenous levels of endothelial dysfunction markers such as ICAM-1 and P-selectine (ICAM-1 and P-selectine): significant reduction
NCCS(=O)(=O)O [TAURINE, 2-aminoethanesulphonic acid]	137	66.87	Culture medium	Levels of cGMP and eNOS in the corpus cavernosum [2]: increased the levels of both cGMP and eNOS; Pressure inside the corpus cavernosum [2]: increase in pressure inside the corpus cavernosum; Levels of NOS and NO in the rat's penis (aged rats): increases levels of both NOS and NO; Secretion of androgens, testosterone (aged rats): increases the secretion of androgens and in particular of testosterone; Sperm quality (count, vitality, motility) (aged rats): improves sperm quality
CC(=O)O[C@H](CC(=O)[O-])C[N+](C)(C)C [N-ACETYL-L-CARNITINE, (R)-3-acetyloxy-4-trimethylammonio-butanoate]	22	−73.20	Water	
O=C(O)CCCCC1CCSS1 (racemic) [α-LIPOIC ACID, alpha-lipoic acid]	60	−26.92		Indicators connected to erectile dysfunction (IIEF-5) [4]: significant improvement; Levels of endothelial NOS and neuron NOS (diabetic rat; 65 mg/kg/daily for 15 days): increase in levels of endothelial NOS and of neuron NOS; Corpus cavernosum dysfunctions (diabetic rat; 300 mg/kg/daily for a month): prevented and ameliorated corpus cavernosum dysfunctions
NC(=O)NCCCC(N)C(=O)O (centres unmarked) [CITRULLINE, 2-amino-5-(carbamoylamino)pentanoic acid]	140	70.52	Culture medium	Erectile function [5]: significant improvement in erectile function; NO plasmatic levels [5]: increasing NO plasmatic levels; Blood levels of L-arginine compared with basic values [6]: increase in the blood levels of L-arginine; Erectile function on EHS and IIEF-5 [7]: increase in erectile function
